# Results from patent US20220388953A1, “COMPOUNDS WITH ANTIMICROBIAL ACTIVITY” (The Hong Kong Polytechnic University, priority 2018, published 2022).
# Read-outs that look alike come from different tables or passages of the source.
# Assays:
# [1] = test system: Streptococcus pneumoniae (Klein) Chester (ATCC 49619); test: Antimicrobial assay, broth microdilution (CLSI), MIC; assay type: cell-based
# Protocol: C3 derivatives were synthesized and antimicrobial activity measured against Streptococcus pneumoniae (MIC, minimum inhibitory concentration).
# Bacterial Strains was used in this study is Streptococcus pneumoniae (Klein) Chester (ATCC® 49619™)
# The antimicrobial activity of the compounds was determined by broth microdilution according to the Clinical & Laboratory Standards Institute (CLSI) guidelines. The test medium was cation-adjusted Mueller-Hinton broth (MH). Serial two-fold dilutions were performed for the tested chemicals starting from 256 μg/mL to 0.5 μg/mL, and the bacterial cell inoculum was adjusted to approximately 5×10^5 CFU/mL. Results were taken after 20 h of incubation at 37° C. The MIC was defined as the lowest concentration of antibiotic with no visible growth. Experiments were performed in duplicates.
# [2] = ATCC49619, Table 1, Streptococcus pneumoniae ATCC 49619, 20 h at 37° C., read-out: MIC
# [3] = Streptococcus pneumoniae, ATCC49619, 20 h
# [4] = ATCC49619, Table 3, Streptococcus pneumoniae ATCC 49619, 20 h at 37° C., read-out: MIC
Compound,melting point [°C],other results
"Nc1ccccc1Sc1ccc(C(=O)Nc2ccccc2C(=O)O)cc1[N+](=O)[O-] [C3-057, 2-(4-((2-Aminophenyl)thio)-3-nitrobenzamido)benzoic Acid]",259 to 261,–
"Cc1cccc(Nc2ccc(C(=O)c3ccccc3C(=O)O)cc2[N+](=O)[O-])c1 [C3-18, 2-(3-Nitro-4-(m-tolylamino)benzoyl)benzoic Acid]",90 to 92,"MIC [1, 2]: 128 µg/mL"
"CC(C)Nc1cccc(Sc2ccc(C(=O)c3ccccc3C(=O)O)cc2[N+](=O)[O-])c1 [C3-7, 2-(4-((3-(Isopropylamino)phenyl)thio)-3-nitrobenzoyl)benzoic Acid]",130 to 132,"MIC [1, 2]: 32 µg/mL"
Nc1ccccc1Sc1ccc(C2(O)c3ccccc3C(=O)N2c2cccc(Cl)c2)cc1[N+](=O)[O-] (stereo not drawn) [C3-46],–,"MIC [1, 3]: > 256 µg/mL"
Nc1ccccc1Sc1ccc(C2(O)c3ccccc3C(=O)N2Cc2ccccc2)cc1[N+](=O)[O-] (stereo not drawn) [C3-47],–,"MIC [1, 4]: > 256 µg/mL"
"O=C(O)c1ccccc1C(=O)c1ccc(Sc2ccccc2F)c([N+](=O)[O-])c1 [C3-3, 2-(4-((2-Fluorophenyl)thio)-3-nitrobenzoyl)benzoic Acid]",175 to 176,"MIC [1, 2]: 128 µg/mL"
"Cc1ccc(Sc2ccc(C(=O)c3ccccc3C(=O)O)cc2[N+](=O)[O-])c(C)c1 [C3-12, 2-(4-((2,4-Dimethylphenyl)thio)-3-nitrobenzoyl)benzoic Acid]",240 to 242,"MIC [1, 3]: 32 µg/mL"
"NC1CCCCC1Nc1ccc(C(=O)c2ccccc2C(=O)O)cc1[N+](=O)[O-] (stereo not drawn) [C3-28, 2-(4-((2-Aminocyclohexyl)amino)-3-nitrobenzoyl)benzoic Acid]",–,"MIC [1, 2]: 256 µg/mL"
"Nc1ccccc1Sc1ccc(CNc2cccc(C(=O)O)c2)cc1[N+](=O)[O-] [C3-027, 3-((4-((2-Aminophenyl)thio)-3-nitrobenzyl)amino)benzoic Acid]",105 to 107,–
"Nc1cc(C(=O)c2ccccc2C(=O)O)ccc1Sc1ccc(Cl)c(Cl)c1 [C3-094, 2-(3-Amino-4-((3,4-dichlorophenyl)thio)benzoyl)benzoic Acid]",188 to 190,–
"Nc1ccccc1Sc1ccc(C(=O)Nc2ccc(C(=O)O)cc2)cc1[N+](=O)[O-] [C3-056, 4-(4-((2-Aminophenyl)thio)-3-nitrobenzamido)benzoic Acid]",247 to 249,–
"CN(C)c1cc(C(=O)c2ccccc2C(=O)O)ccc1Sc1ccc(Cl)c(Cl)c1 [C3-095, 2-(4-((3,4-Dichlorophenyl)thio)-3-(dimethylamino)benzoyl)benzoic Acid]",144 to 146,–
Nc1ccccc1Sc1ccc(C2(O)c3ccccc3C(=O)N2c2ccccc2)cc1[N+](=O)[O-] (stereo not drawn) [C3-41],–,"MIC [1, 3]: > 256 µg/mL"
"Nc1cc(Cl)ccc1Sc1ccc(C(=O)c2ccccc2C(=O)O)cc1[N+](=O)[O-] [C3-10, 2-(4-((2-Amino-4-chlorophenyl)thio)-3-nitrobenzoyl)benzoic Acid]",–,"MIC [1, 3]: 64 µg/mL"
"Nc1ccc(Sc2ccc(C(=O)c3ccccc3C(=O)O)cc2[N+](=O)[O-])cc1 [C3-6, 2-(4-((4-Aminophenyl)thio)-3-nitrobenzoyl)benzoic Acid]",–,"MIC [1, 3]: 128 µg/mL"
NC(=O)c1cccc(N2C(=O)c3ccccc3C2(O)c2ccc(Sc3ccccc3N)c([N+](=O)[O-])c2)c1 (stereo not drawn) [C3-42],–,"MIC [1, 4]: 32 µg/mL"
O=C(O)c1ccccc1C(=O)c1ccc(Nc2cccc(Cl)c2)c([N+](=O)[O-])c1,159 to 161,–
Nc1ccccc1Sc1ccc(C2(O)c3ccccc3C(=O)N2Cc2ccccc2F)cc1[N+](=O)[O-] (stereo not drawn) [C3-48],–,"MIC [1, 4]: > 256 µg/mL"
"O=C(O)c1ccccc1C(=O)c1ccc(Sc2ccc(Cl)c(Cl)c2)c([N+](=O)[O-])c1 [C3-13, 2-(4-((3,4-Dichlorophenyl)thio)-3-nitrobenzoyl)benzoic Acid]",–,"MIC [1, 3]: 8 µg/mL"
Nc1ccccc1Sc1ccc(C2(O)NC(=O)c3ccccc32)cc1[N+](=O)[O-] (stereo not drawn) [C3-39],–,"MIC [1, 4]: 32 µg/mL"
Cc1cccc(N2C(=O)c3ccccc3C2(O)c2ccc(Sc3ccccc3N)c([N+](=O)[O-])c2)c1 (stereo not drawn) [C3-45],–,"MIC [1, 4]: > 256 µg/mL"
"O=C(O)c1ccccc1C(=O)c1ccc(Sc2ccc(Cl)c(Cl)c2)cc1 [C3-083, 2-(4-((3,4-Dichlorophenyl)thio)benzoyl)benzoic Acid]",164 to 166,–
Nc1ccccc1Sc1ccc(C2(O)c3ccccc3C(=O)N2c2cccc(C(=O)O)c2)cc1[N+](=O)[O-] (stereo not drawn) [C3-43],–,"MIC [1, 3]: 64 µg/mL"
CC(C)(C)c1cccc(N2C(=O)c3ccccc3C2(O)c2ccc(Sc3ccccc3N)c([N+](=O)[O-])c2)c1 (stereo not drawn) [C3-44],–,"MIC [1, 4]: > 256 µg/mL"
"Nc1ccccc1Sc1ccc(C(=O)Nc2cccc(C(=O)O)c2)cc1[N+](=O)[O-] [C3-026, 3-(4-((2-Aminophenyl)thio)-3-nitrobenzamido)benzoic Acid]",251 to 252,–
"Nc1cccc(Sc2ccc(C(=O)c3ccccc3C(=O)O)cc2[N+](=O)[O-])c1 [C3-5, 2-(4-((3-Aminophenyl)thio)-3-nitrobenzoyl)benzoic Acid]",–,"MIC [1, 3]: 64 µg/mL"

# The next lines start with results.
melting point [°C],Compound,other results
204 to 206,"O=C(O)c1c(Cl)cccc1NCc1ccc(Sc2ccc(Cl)c(Cl)c2)c([N+](=O)[O-])c1 [C3-088, 2-Chloro-6-((4-((3,4-Dichlorophenyl)thio)-3-nitrobenzyl)amino)benzoic Acid]",–
118 to 120,"O=[N+]([O-])c1cc(CNc2cccc(CO)c2)ccc1Sc1ccc(Cl)c(Cl)c1 [C3-080, (3-((4-((3,4-Dichlorophenyl)thio)-3-nitrobenzyl)amino)phenyl)methanol]",–
184 to 186,"NC(=O)c1ccccc1NCc1ccc(Sc2ccc(Cl)c(Cl)c2)c([N+](=O)[O-])c1 [C3-090, 2-((4-((3,4-Dichlorophenyl)thio)-3-nitrobenzyl)amino)benzamide]",–
220 to 222,"O=C(O)c1ccc(Cl)cc1NCc1ccc(Sc2ccc(Cl)c(Cl)c2)c([N+](=O)[O-])c1 [C3-087, 4-Chloro-2-((4-((3,4-dichlorophenyl)thio)-3-nitrobenzyl)amino)benzoic Acid]",–
201 to 203,"Nc1ccccc1Sc1ccc(CNc2ccccc2C(=O)O)cc1[N+](=O)[O-] [C3-065, 2-((4-((2-Aminophenyl)thio)-3-nitrobenzyl)amino)benzoic Acid]",–
158 to 160,"NC(=O)c1cccc(NCc2ccc(Sc3ccc(Cl)c(Cl)c3)c([N+](=O)[O-])c2)c1 [C3-066, 3-((4-((3,4-Dichlorophenyl)thio)-3-nitrobenzyl)amino)benzamide]",–
224 to 226,"O=C(O)c1cccc(NCc2ccc(Sc3ccc(Cl)c(Cl)c3)c([N+](=O)[O-])c2)c1 [C3-047, 3-((4-((3,4-Dichlorophenyl)thio)-3-nitrobenzyl)amino)benzoic Acid]",–
222 to 224,"Cc1ccc(C(=O)O)cc1NCc1ccc(Sc2ccc(Cl)c(Cl)c2)c([N+](=O)[O-])c1 [C3-075, 3-((4-((3,4-Dichlorophenyl)thio)-3-nitrobenzyl)amino)-4-methylbenzoic Acid]",–
196 to 198,"O=C(O)c1ccc(Cl)c(NCc2ccc(Sc3ccc(Cl)c(Cl)c3)c([N+](=O)[O-])c2)c1 [C3-071, 4-Chloro-3-((4-((3,4-dichlorophenyl)thio)-3-nitrobenzyl)amino)benzoic Acid]",–
231 to 233,"O=C(O)c1ccc(Br)c(NCc2ccc(Sc3ccc(Cl)c(Cl)c3)c([N+](=O)[O-])c2)c1 [C3-078, 4-Bromo-3-((4-((3,4-dichlorophenyl)thio)-3-nitrobenzyl)amino)benzoic Acid]",–
191 to 193,"NS(=O)(=O)c1cccc(NCc2ccc(Sc3ccc(Cl)c(Cl)c3)c([N+](=O)[O-])c2)c1 [C3-074, 3-((4-((3,4-Dichlorophenyl)thio)-3-nitrobenzyl)amino)benzenesulfonamide]",–
279 to 281,"O=C(Nc1ccccc1C(=O)O)c1ccc(Sc2ccc(Cl)c(Cl)c2)c([N+](=O)[O-])c1 [C3-077, 2-(4-((3,4-Dichlorophenyl)thio)-3-nitrobenzamido)benzoic Acid]",–
147 to 149,"O=C(O)c1ccc(N2CCOCC2)c(NCc2ccc(Sc3ccc(Cl)c(Cl)c3)c([N+](=O)[O-])c2)c1 [C3-073, 3-((4-((3,4-Dichlorophenyl)thio)-3-nitrobenzyl)amino)-4-morpholinobenzoic Acid]",–
173 to 175,"N#Cc1ccccc1NCc1ccc(Sc2ccc(Cl)c(Cl)c2)c([N+](=O)[O-])c1 [C3-091, 2-((4-((3,4-Dichlorophenyl)thio)-3-nitrobenzyl)amino)benzonitrile]",–
280 to 282,"O=C(O)c1cccc(NC(=O)c2ccc(Sc3ccc(Cl)c(Cl)c3)c([N+](=O)[O-])c2)c1 [C3-048, 3-(4-((3,4-Dichlorophenyl)thio)-3-nitrobenzamido)benzoic Acid]",–
171 to 173,"O=C(O)c1ccccc1NCc1ccc(Sc2ccc(Cl)c(Cl)c2)c([N+](=O)[O-])c1 [C3-081, 2-((4-((3,4-Dichlorophenyl)thio)-3-nitrobenzyl)amino)benzoic Acid]",–
237 to 239,"O=C(O)c1ccc(F)c(NCc2ccc(Sc3ccc(Cl)c(Cl)c3)c([N+](=O)[O-])c2)c1 [C3-082, 3-((4-((3,4-Dichlorophenyl)thio)-3-nitrobenzyl)amino)-4-fluorobenzoic Acid]",–
148 to 150,"O=C(O)c1cc(NCc2ccc(Sc3ccc(Cl)c(Cl)c3)c([N+](=O)[O-])c2)ccc1Cl [C3-079, 2-Chloro-5-((4-((3,4-dichlorophenyl)thio)-3-nitrobenzyl)amino)benzoic Acid]",–
